Publication PMC9402538, “Rational design of a sensitivity-enhanced tracer for discovering efficient APC–Asef inhibitors” (Nature Communications, 2022)
Where a SMILES comes first, the peptide text is derived from it. The star is where a group is joined. Bz = O=C(c1ccccc1)*

Molecular target: T1, APC (303–739) (Homo sapiens, UniProt P25054)
T1 sequence (P25054 303-739): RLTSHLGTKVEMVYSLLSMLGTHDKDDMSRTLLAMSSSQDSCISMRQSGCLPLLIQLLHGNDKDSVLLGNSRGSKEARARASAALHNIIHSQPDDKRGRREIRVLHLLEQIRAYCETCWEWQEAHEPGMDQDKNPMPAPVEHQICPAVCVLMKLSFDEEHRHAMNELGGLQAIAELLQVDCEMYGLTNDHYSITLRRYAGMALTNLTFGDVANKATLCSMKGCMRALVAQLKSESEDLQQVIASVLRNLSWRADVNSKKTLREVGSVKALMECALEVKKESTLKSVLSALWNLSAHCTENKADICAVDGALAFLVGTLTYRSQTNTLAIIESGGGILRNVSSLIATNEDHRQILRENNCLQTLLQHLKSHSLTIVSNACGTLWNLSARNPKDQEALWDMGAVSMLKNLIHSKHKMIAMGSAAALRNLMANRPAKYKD
Experiment: FP competitive assay using tracer 7
Format: binding
Conditions: for IC50: Table 3 source data
In short: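 Peptide dilutions were first incubated 1 h at room temperature with APC (303–739) in HEPES pH 7.5 buffer containing 300 mM NaCl, EDTA and DTT. Added FITC tracer 7 (400 nM stock) displaced over a further 1.5 h before polarization reading. IC50 values came from nonlinear regression fits of triplicate data.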

Q: Which results are given for `CC(C)C[C@H](NC(=O)[C@H](CO)NC(=O)[C@H](CCC(=O)O)NC(=O)CNC(=O)[C@H](C)NC(=O)c1ccccc1)C(=O)N[C@@H](Cc1ccc(O)cc1)C(=O)N[C@@H](CCC(=O)O)C(N)=O` [MAI-511] (Bz-AGESLYE-NH2)?
A: inhibition at 0.0002 µM (Conc. 0.0002 μM, individual repeats, Fig3b): 1.5%; inhibition at 0.0005 µM (Conc. 0.0005 μM, individual repeats, Fig3b): 1.2%; inhibition at 0.001 µM (Conc. 0.001 μM, individual repeats, Fig3b): 1.9%; inhibition at 0.002 µM (Conc. 0.002 μM, individual repeats, Fig3b): 1.5%; inhibition at 0.0024 µM (Conc. 0.0024 μM, individual repeats, Fig3b): 1.1%; inhibition at 0.0039 µM (Conc. 0.0039 μM, individual repeats, Fig3b): 2.5%; inhibition at 0.0049 µM (Conc. 0.0049 μM, individual repeats, Fig3b): 1.1%; inhibition at 0.006 µM (Conc. 0.006 μM, individual repeats, Fig3b): 4.7%; inhibition at 0.0078 µM (Conc. 0.0078 μM, individual repeats, Fig3b): 5.3%; inhibition at 0.0098 µM (Conc. 0.0098 μM, individual repeats, Fig3b): 6.1%; inhibition at 0.012 µM (Conc. 0.012 μM, individual repeats, Fig3b): 7.9%; inhibition at 0.0156 µM (Conc. 0.0156 μM, individual repeats, Fig3b): 8.5%; inhibition at 0.0195 µM (Conc. 0.0195 μM, individual repeats, Fig3b): 11.3%; inhibition at 0.024 µM (Conc. 0.024 μM, individual repeats, Fig3b): 16.8%; inhibition at 0.0313 µM (Conc. 0.0313 μM, individual repeats, Fig3b): 22.7%; inhibition at 0.0391 µM (Conc. 0.0391 μM, individual repeats, Fig3b): 22.5%; inhibition at 0.049 µM (Conc. 0.049 μM, individual repeats, Fig3b): 31.3%; inhibition at 0.0625 µM (Conc. 0.0625 μM, individual repeats, Fig3b): 39%; inhibition at 0.0781 µM (Conc. 0.0781 μM, individual repeats, Fig3b): 39.5%; inhibition at 0.098 µM (Conc. 0.098 μM, individual repeats, Fig3b): 49%; inhibition at 0.125 µM (Conc. 0.125 μM, individual repeats, Fig3b): 56.2%; inhibition at 0.1563 µM (Conc. 0.1563 μM, individual repeats, Fig3b): 58.3%; inhibition at 0.195 µM (Conc. 0.195 μM, individual repeats, Fig3b): 67.3%; inhibition at 0.25 µM (Conc. 0.25 μM, individual repeats, Fig3b): 72.5%; inhibition at 0.3125 µM (Conc. 0.3125 μM, individual repeats, Fig3b): 72.1%; inhibition at 0.391 µM (Conc. 0.391 μM, individual repeats, Fig3b): 80.1%; inhibition at 0.5 µM (Conc. 0.5 μM, individual repeats, Fig3b): 83.2%; inhibition at 0.625 µM (Conc. 0.625 μM, individual repeats, Fig3b): 82.5%; inhibition at 0.781 µM (Conc. 0.781 μM, individual repeats, Fig3b): 86.3%; inhibition at 1 µM (Conc. 1 μM, individual repeats, Fig3b): 90.6%; inhibition at 1.25 µM (Conc. 1.25 μM, individual repeats, Fig3b): 89.5%; inhibition at 1.563 µM (Conc. 1.563 μM, individual repeats, Fig3b): 91.5%; inhibition at 2 µM (Conc. 2 μM, individual repeats, Fig3b): 95.4%; inhibition at 2.5 µM (Conc. 2.5 μM, individual repeats, Fig3b): 93.6%; inhibition at 3.125 µM (Conc. 3.125 μM, individual repeats, Fig3b): 93.5%; inhibition at 5 µM (Conc. 5 μM, individual repeats, Fig3b): 95.7%; inhibition at 6.25 µM (Conc. 6.25 μM, individual repeats, Fig3b): 94.1%; inhibition at 10 µM (Conc. 10 μM, individual repeats, Fig3b): 96.6%; inhibition at 12.5 µM (Conc. 12.5 μM, individual repeats, Fig3b): 95%; inhibition at 20 µM (Conc. 20 μM, individual repeats, Fig3b): 97.1%; inhibition at 25 µM (Conc. 25 μM, individual repeats, Fig3b): 95.6%; inhibition at 50 µM (Conc. 50 μM, individual repeats, Fig3b): 94.9%; IC50 (IC50(μM) Repeat 1, Repeat 1): 0.0848 µM; IC50 (IC50(μM) Repeat 2, Repeat 2): 0.102 µM; IC50 (IC50(μM) Repeat 3, Repeat 3): 0.108 µM; IC50 (IC50(μM) mean, mean of 3 repeats): 0.0984 µM; mean (FP signal, FigS5) (Repeat 1, Conc. 0.0024 μM): 300.7; mean (FP signal, FigS5) (Repeat 1, Conc. 0.0049 μM): 300.5; mean (FP signal, FigS5) (Repeat 1, Conc. 0.0098 μM): 288; mean (FP signal, FigS5) (Repeat 1, Conc. 0.0195 μM): 274.7; mean (FP signal, FigS5) (Repeat 1, Conc. 0.0391 μM): 246.3; mean (FP signal, FigS5) (Repeat 1, Conc. 0.0781 μM): 203.3; mean (FP signal, FigS5) (Repeat 1, Conc. 0.1563 μM): 155.7; mean (FP signal, FigS5) (Repeat 1, Conc. 0.3125 μM): 120.7; mean (FP signal, FigS5) (Repeat 1, Conc. 0.625 μM): 94.3; mean (FP signal, FigS5) (Repeat 1, Conc. 1.25 μM): 76.7; mean (FP signal, FigS5) (Repeat 1, Conc. 2.5 μM): 66.3; mean (FP signal, FigS5) (Repeat 1, Conc. 5 μM): 61; mean (FP signal, FigS5) (Repeat 1, Conc. 10 μM): 58.7; mean (FP signal, FigS5) (Repeat 1, Conc. 20 μM): 57.3; mean (FP signal, FigS5) (Repeat 2, Conc. 0.0002 μM): 300.7; mean (FP signal, FigS5) (Repeat 2, Conc. 0.0005 μM): 301.3; mean (FP signal, FigS5) (Repeat 2, Conc. 0.001 μM): 299.7; mean (FP signal, FigS5) (Repeat 2, Conc. 0.002 μM): 300.7; mean (FP signal, FigS5) (Repeat 2, Conc. 0.0039 μM): 298; mean (FP signal, FigS5) (Repeat 2, Conc. 0.0078 μM): 291; mean (FP signal, FigS5) (Repeat 2, Conc. 0.0156 μM): 283; mean (FP signal, FigS5) (Repeat 2, Conc. 0.0313 μM): 247.3; mean (FP signal, FigS5) (Repeat 2, Conc. 0.0625 μM): 206.3; mean (FP signal, FigS5) (Repeat 2, Conc. 0.125 μM): 163; mean (FP signal, FigS5) (Repeat 2, Conc. 0.25 μM): 122; mean (FP signal, FigS5) (Repeat 2, Conc. 0.5 μM): 95.3; mean (FP signal, FigS5) (Repeat 2, Conc. 1 μM): 76.7; mean (FP signal, FigS5) (Repeat 2, Conc. 2 μM): 64.7; mean (FP signal, FigS5) (Repeat 3, Conc. 0.006 μM): 301.3; mean (FP signal, FigS5) (Repeat 3, Conc. 0.012 μM): 293; mean (FP signal, FigS5) (Repeat 3, Conc. 0.024 μM): 270; mean (FP signal, FigS5) (Repeat 3, Conc. 0.049 μM): 232.3; mean (FP signal, FigS5) (Repeat 3, Conc. 0.098 μM): 186.3; mean (FP signal, FigS5) (Repeat 3, Conc. 0.195 μM): 138.7; mean (FP signal, FigS5) (Repeat 3, Conc. 0.391 μM): 105.3; mean (FP signal, FigS5) (Repeat 3, Conc. 0.781 μM): 89.3; mean (FP signal, FigS5) (Repeat 3, Conc. 1.563 μM): 75.7; mean (FP signal, FigS5) (Repeat 3, Conc. 3.125 μM): 70.7; mean (FP signal, FigS5) (Repeat 3, Conc. 6.25 μM): 69; mean (FP signal, FigS5) (Repeat 3, Conc. 12.5 μM): 66.7; mean (FP signal, FigS5) (Repeat 3, Conc. 25 μM): 65; mean (FP signal, FigS5) (Repeat 3, Conc. 50 μM): 67
